ChEMBL document CHEMBL1145395, “De novo design of selective antibiotic peptides by incorporation of unnatural amino acids” (J Med Chem, 2007)
Values after ≈ are worked out from the molar mass of the structure shown. Active and inactive are the calls of the source. No cut-off for these calls is given here. Starred links: 1 amine or outer side, 2 acyl side, 3 side chain; linkers in the order of their positions; H or OH if unused. Non-standard residues stand in square brackets, D forms with d. Residues, ends and D or L forms follow the SMILES beside them. ξ: configuration not given here. *: point of attachment. Biotin = O=C1N[C@H]2[C@H](CS[C@H]2CCCCC(=O)*)N1; Pro(3ξ,4ξ-(CH2)4) = O=C(O)[C@H]1NCC2CCCCC21; Oic = O=C(O)[C@@H]1C[C@@H]2CCCC[C@@H]2N1; X1 = O=C([C@@H]1CN([*:1])C2CCCCC21)[*:2]; Ethylenediamine = C(CN[*:2])N[*:1]; Tic = O=C(O)[C@@H]1Cc2ccccc2CN1; Dap = NC[C@H](N)C(=O)O; NH(CH2)3NH2 = NCCCN*; GABA = NCCCC(=O)O

Columns and labels:
[1] = Toxicity to mouse RBC assessed as hemolytic activity at 100 uM; assay type: cell-based, Erythrocyte; details: red blood cells, read-out: Activity
[2] = Toxicity to mouse RBC assessed as hemolytic activity at 25 uM; assay type: cell-based, Erythrocyte; details: red blood cells, read-out: Activity
Salmonella typhimurium = experiment: Antibacterial activity against Salmonella Typhimurium ATCC 13311; assay type: functional, Salmonella enterica subsp. enterica serovar Typhimurium; details: for MIC: Salmonella enterica
Staphylococcus aureus = experiment: Antibacterial activity against methicillin/gentamicin/tetracycline resistant Staphylococcus aureus ATCC 33592; assay type: functional
Mycobacterium = experiment: Antibacterial activity against Mycobacterium ranae ATCC 110; assay type: functional
Bacillus subtilis = experiment: Antibacterial activity against Bacillus subtilis ATCC 43223; assay type: functional

In the case of `CC(=O)NCCCC(=O)N[C@@H](Cc1ccccc1)C(=O)N1Cc2ccccc2C[C@H]1C(=O)N1[C@H](C(=O)NCCCC(=O)N[C@@H](CCCCN)C(=O)N2Cc3ccccc3C[C@H]2C(=O)N2[C@H](C(=O)NCCCC(=O)N[C@@H](Cc3ccccc3)C(=O)N3Cc4ccccc4C[C@H]3C(=O)N3[C@H](C(=O)NCCCC(=O)N[C@@H](CCCCN)C(=O)N4Cc5ccccc5C[C@H]4C(=O)N[C@@H](CCCCN)C(=O)N[C@@H](CCCCN)C(=O)N[C@@H](CCCCN)C(=O)N[C@@H](CCCCN)C(=O)N[C@@H](CCCCN)C(N)=O)C[C@@H]4CCCC[C@@H]43)C[C@@H]3CCCC[C@@H]32)C[C@@H]2CCCC[C@@H]21` (Ac-[GABA]F[Tic][Oic][GABA]K[Tic][Oic][GABA]F[Tic][Oic][GABA]K[Tic]KKKKK-NH2) [listing 1 of 2 here], the hemolysis at 100 µM [1] is reported as 29.7% and the hemolysis at 25 µM [2] is reported as 10.5%.
With `CC(=O)NCC(=O)N[C@@H](Cc1ccccc1)C(=O)N1Cc2ccccc2C[C@H]1C(=O)N1[C@H](C(=O)NCC(=O)N[C@@H](CCCCN)C(=O)N2Cc3ccccc3C[C@H]2C(=O)N2[C@H](C(=O)NCC(=O)N[C@@H](Cc3ccccc3)C(=O)N3Cc4ccccc4C[C@H]3C(=O)N3[C@H](C(=O)NCC(=O)N[C@@H](CCCCN)C(=O)N4Cc5ccccc5C[C@H]4C(=O)N[C@@H](CCCCN)C(=O)N[C@@H](CCCCN)C(=O)N[C@@H](CCCCN)C(=O)N[C@@H](CCCCN)C(=O)NCCCN)C[C@@H]4CCCC[C@@H]43)C[C@@H]3CCCC[C@@H]32)C[C@@H]2CCCC[C@@H]21` (Ac-GF[Tic][Oic]GK[Tic][Oic]GF[Tic][Oic]GK[Tic]KKKK-{NH(CH2)3NH2}) the MIC (Salmonella typhimurium) was 30 µM (≈ 74.9 µg/mL), the MIC (Staphylococcus aureus) was 10 µM (≈ 25 µg/mL) and the MIC (Mycobacterium) was 10 µM (≈ 25 µg/mL). The MIC (Bacillus subtilis) was 3 µM (≈ 7.49 µg/mL).
Work on `CC(=O)NCCCC(=O)N[C@@H](Cc1ccccc1)C(=O)N1Cc2ccccc2C[C@H]1C(=O)N1[C@H](C(=O)NCCCC(=O)N[C@@H](CCCCN)C(=O)N2Cc3ccccc3C[C@H]2C(=O)N2[C@H](C(=O)NCCCC(=O)N[C@@H](Cc3ccccc3)C(=O)N3Cc4ccccc4C[C@H]3C(=O)N3[C@H](C(=O)NCCCC(=O)N[C@@H](CCCCN)C(=O)N4Cc5ccccc5C[C@H]4C(=O)N[C@@H](CCCCN)C(=O)N[C@@H](CCCCN)C(=O)N[C@@H](CCCCN)C(=O)N[C@@H](CCCCN)C(=O)N[C@@H](CCCCN)C(N)=O)C[C@@H]4CCCC[C@@H]43)C[C@@H]3CCCC[C@@H]32)C[C@@H]2CCCC[C@@H]21` (Ac-[GABA]F[Tic][Oic][GABA]K[Tic][Oic][GABA]F[Tic][Oic][GABA]K[Tic]KKKKK-NH2) [listing 2 of 2 here] yielded an MIC (Salmonella typhimurium) of 10 µM (≈ 26.8 µg/mL), an MIC (Staphylococcus aureus) of 30 µM (≈ 80.4 µg/mL) and an MIC (Mycobacterium) of 3 µM (≈ 8.04 µg/mL). It also gave an MIC (Bacillus subtilis) of 1 µM (≈ 2.68 µg/mL).
Compound `NCCCC[C@H](NC(=O)[C@H](CCCCN)NC(=O)[C@H](CCCCN)NC(=O)[C@H](CCCCN)NC(=O)[C@@H]1Cc2ccccc2CN1C(=O)[C@H](CCCCN)NC(=O)CNC(=O)[C@@H]1C[C@@H]2CCCC[C@@H]2N1C(=O)[C@@H]1Cc2ccccc2CN1C(=O)[C@H](Cc1ccccc1)NC(=O)CNC(=O)[C@@H]1C[C@@H]2CCCC[C@@H]2N1C(=O)[C@@H]1Cc2ccccc2CN1C(=O)[C@H](CCCCN)NC(=O)CNC(=O)[C@@H]1C[C@@H]2CCCC[C@@H]2N1C(=O)[C@@H]1Cc2ccccc2CN1C(=O)[C@H](Cc1ccccc1)NC(=O)CNC(=O)CCCC[C@@H]1SC[C@@H]2NC(=O)N[C@@H]21)C(N)=O` (Biotin-GF[Tic][Oic]GK[Tic][Oic]GF[Tic][Oic]GK[Tic]KKKK-NH2) has an MIC (Salmonella typhimurium) of 30 µM (≈ 78.8 µg/mL), an MIC (Staphylococcus aureus) of 3 µM (≈ 7.88 µg/mL) and an MIC (Mycobacterium) of 10 µM (≈ 26.3 µg/mL). The MIC (Bacillus subtilis) was 1 µM (≈ 2.63 µg/mL).
For `CC(C)C[C@H](NC(=O)[C@@H](N)CCCCN)C(=O)N1Cc2ccccc2C[C@H]1C(=O)N1C[C@@H](C(=O)N[C@@H](CCCCN)C(=O)N2Cc3ccccc3C[C@H]2C(=O)N2C[C@@H](C(=O)N[C@@H](Cc3ccccc3)C(=O)N3Cc4ccccc4C[C@H]3C(=O)N3C[C@@H](C(=O)N[C@@H](CCCCN)C(=O)N4Cc5ccccc5C[C@H]4C(=O)N4C[C@@H](C(=O)N[C@@H](Cc5ccccc5)C(=O)N5Cc6ccccc6C[C@H]5C(=O)N5C[C@@H](C(=O)N[C@@H](CCCCN)C(=O)N6Cc7ccccc7C[C@H]6C(=O)N6C[C@@H](C(=O)N[C@@H](CCCCN)C(=O)N[C@@H](CCCNC(=N)N)C(N)=O)C7CCCCC76)C6CCCCC65)C5CCCCC54)C4CCCCC43)C3CCCCC32)C2CCCCC21` (stereo not given in full) (H-KL[Tic][X1]K[Tic][X1]F[Tic][X1]K[Tic][X1]F[Tic][X1]K[Tic][X1]KR-NH2), the Activity (Salmonella typhimurium; Salmonella enterica subsp. enterica serovar Typhimurium) was “inactive”, the MIC (Staphylococcus aureus) was 10 µM (≈ 30.8 µg/mL) and the MIC (Mycobacterium) was 30 µM (≈ 92.5 µg/mL). It also gave an MIC (Bacillus subtilis) of 1 µM (≈ 3.08 µg/mL) and a hemolysis at 100 µM [1] of 63%.
`CC(=O)NCC(=O)N[C@@H](Cc1ccccc1)C(=O)N1Cc2ccccc2C[C@H]1C(=O)N1[C@H](C(=O)NCC(=O)N[C@@H](CCCCN)C(=O)N2Cc3ccccc3C[C@H]2C(=O)N2[C@H](C(=O)NCC(=O)N[C@@H](Cc3ccccc3)C(=O)N3Cc4ccccc4C[C@H]3C(=O)N3[C@H](C(=O)NCC(=O)N[C@@H](CCCCN)C(=O)N4Cc5ccccc5C[C@H]4C(=O)N[C@@H](CCCCN)C(=O)N[C@@H](CCCCN)C(=O)N[C@@H](CCCCN)C(=O)N[C@@H](CCCCN)C(=O)NCCN)C[C@@H]4CCCC[C@@H]43)C[C@@H]3CCCC[C@@H]32)C[C@@H]2CCCC[C@@H]21` (Ac-GF[Tic][Oic]GK[Tic][Oic]GF[Tic][Oic]GK[Tic]KKKK-Ethylenediamine) gave an MIC (Salmonella typhimurium) of 10 µM (≈ 24.8 µg/mL), an MIC (Staphylococcus aureus) of 3 µM (≈ 7.45 µg/mL) and an MIC (Mycobacterium) of 10 µM (≈ 24.8 µg/mL). It also gave an MIC (Bacillus subtilis) of 1 µM (≈ 2.48 µg/mL).
In the case of `NCCCC[C@H](NC(=O)[C@H](CCCCN)NC(=O)[C@H](CCCCN)NC(=O)[C@H](CCCCN)NC(=O)[C@@H]1Cc2ccccc2CN1C(=O)[C@H](CCCCN)NC(=O)CNC(=O)[C@@H]1C[C@@H]2CCCC[C@@H]2N1C(=O)[C@@H]1Cc2ccccc2CN1C(=O)[C@H](Cc1ccccc1)NC(=O)CNC(=O)[C@@H]1C[C@@H]2CCCC[C@@H]2N1C(=O)[C@@H]1Cc2ccccc2CN1C(=O)[C@H](CCCCN)NC(=O)CNC(=O)[C@@H]1C[C@@H]2CCCC[C@@H]2N1C(=O)[C@@H]1Cc2ccccc2CN1C(=O)[C@H](Cc1ccccc1)NC(=O)CN)C(N)=O` (H-GF[Tic][Oic]GK[Tic][Oic]GF[Tic][Oic]GK[Tic]KKKK-NH2), the MIC (Salmonella typhimurium) is reported as 3 µM (≈ 7.2 µg/mL), the MIC (Staphylococcus aureus) is reported as 10 µM (≈ 24 µg/mL) and the MIC (Mycobacterium) is reported as 10 µM (≈ 24 µg/mL). For the same compound, the MIC (Bacillus subtilis) was 1 µM (≈ 2.4 µg/mL).
In the case of `CC(=O)NCC(=O)N[C@@H](Cc1ccccc1)C(=O)N1Cc2ccccc2C[C@H]1C(=O)N1[C@H](C(=O)NCC(=O)N[C@@H](CN)C(=O)N2Cc3ccccc3C[C@H]2C(=O)N2[C@H](C(=O)NCC(=O)N[C@@H](Cc3ccccc3)C(=O)N3Cc4ccccc4C[C@H]3C(=O)N3[C@H](C(=O)NCC(=O)N[C@@H](CN)C(=O)N4Cc5ccccc5C[C@H]4C(=O)N[C@@H](CN)C(=O)N[C@@H](CN)C(=O)N[C@@H](CN)C(=O)N[C@@H](CN)C(N)=O)C[C@@H]4CCCC[C@@H]43)C[C@@H]3CCCC[C@@H]32)C[C@@H]2CCCC[C@@H]21` (Ac-GF[Tic][Oic]G[Dap][Tic][Oic]GF[Tic][Oic]G[Dap][Tic][Dap][Dap][Dap][Dap]-NH2), the MIC (Salmonella typhimurium) is reported as 3 µM (≈ 6.57 µg/mL), the MIC (Staphylococcus aureus) is reported as 10 µM (≈ 21.9 µg/mL) and the MIC (Mycobacterium) is reported as 100 µM (≈ 219 µg/mL). It also gave an MIC (Bacillus subtilis) of 1 µM (≈ 2.19 µg/mL).
`CC(=O)NCC(=O)N[C@@H](Cc1ccccc1)C(=O)N[C@@H](Cc1ccccc1)C(=O)N1CC2CCCCC2[C@H]1C(=O)NCC(=O)N[C@@H](CCCCN)C(=O)N[C@@H](Cc1ccccc1)C(=O)N1CC2CCCCC2[C@H]1C(=O)NCC(=O)N[C@@H](Cc1ccccc1)C(=O)N[C@@H](Cc1ccccc1)C(=O)N1CC2CCCCC2[C@H]1C(=O)NCC(=O)N[C@@H](CCCCN)C(=O)N[C@@H](Cc1ccccc1)C(=O)N[C@@H](CCCCN)C(=O)N[C@@H](CCCCN)C(=O)N[C@@H](CCCCN)C(=O)N[C@@H](CCCCN)C(N)=O` (stereo not given in full) (Ac-GFF[Pro(3ξ,4ξ-(CH2)4)]GKF[Pro(3ξ,4ξ-(CH2)4)]GFF[Pro(3ξ,4ξ-(CH2)4)]GKFKKKK-NH2) showed an MIC (Salmonella typhimurium) of 10 µM (≈ 23.9 µg/mL), an MIC (Staphylococcus aureus) of 10 µM (≈ 23.9 µg/mL) and an MIC (Mycobacterium) of 10 µM (≈ 23.9 µg/mL). The MIC (Bacillus subtilis) was 3 µM (≈ 7.18 µg/mL).
